Measured values taken from PMC9313321 (Biomedicines, 2022).

What was measured:
Aβ42 self-aggregation = molecular target: T1, Aβ42 self-aggregation (Homo sapiens, UniProt P05067); assay: biochemical; assay type: biochemical; details: for inhibition at 20 µM: read-out: Aβ42 Self-Aggreg. Inhib; for Aβ42 Self-Aggreg. Inhib: 20 μM inhibitor, absence of copper, thioflavin-T fluorescence, 37 °C 24 h
T1 construct: Beta-amyloid protein, fragment 1-42; purchased GeneCust
Method: The inhibition of Aβ42 aggregation and Cu(II)-induced Aβ42 aggregation, carried out by the RIV–BIM hybrids, was studied using a reported method based on the fluorescence emission of thioflavin T [52, 53].
Solutions of phosphate buffer 0.215 M at pH = 8.00, Na2CO3 300 μM in distilled water, NaOH 250 mM in distilled water, glycine-NaOH 50 mM buffer at pH = 8.50 and CuCl2 240 μM in phosphate buffer were prepared. Stock solutions of […] of the RIV–BIM compounds were prepared in MeOH (with 20% DMSO). Working solutions of 240 μM of the RIV–BIM hybrids were prepared by the proper dilution of their stock solutions with phosphate buffer. A working solution of glycine-NaOH 50 mM buffer at pH = 8.50 containing 5 μM of thioflavin T (ThT) was prepared daily. Aβ42 (GeneCust) was pre-treated with 1,1,1,3,3,3-hexafluoro-2-propanol (HFIP) to obtain a solution of 0.149 mM by brief sonication and vortexing, which was kept covered overnight at room temperature. From the Aβ42 solution, aliquots of 250 μL were placed into Eppendorf tubes under ice and set to evaporate inside a hood at room temperature overnight. When the contents of the Eppendorf tubes were dried, the Aβ42 aliquots were stored at −20 °C until needed. To obtain the Aβ42 working solution, the Aβ42 aliquots were dissolved with a freshly prepared mixture of 69.5 μL of CH3CN/Na2CO3 (300 μM)/NaOH (250 mM) (48.3/48.3/3.4, v/v/v) by brief sonication and vortexing to obtain an Aβ42 solution of 531.24 μM. To this solution, 392.5 μL of phosphate buffer was added, achieving an Aβ42 working solution of 80 μM. To prepare the incubations, three replicates of Aβ42 alone (30 μL Aβ42 80 μM + 30 μL phosphate buffer), Aβ42 with RIV–BIM (30 μL Aβ42 80 μM + 10 μL RIV–BIM 240 μM + 20 μL phosphate buffer), Aβ42 with copper (30 μL Aβ42 80 μM + 10 μL CuCl2 240 μM + 20 μL phosphate buffer) and Aβ42 with copper and RIV–BIM (30 μL Aβ42 80 μM + 10 μL CuCl2 240 μM + 10 μL RIV–BIM 240 μM + 10 μL phosphate buffer) were placed in Eppendorfs. To obtain the blank solutions, a similar number of Eppendorfs, replacing Aβ42 with phosphate buffer, were prepared. Incubations were performed in a water bath at 37 °C with agitation for 24 h. Afterwards, 180 μL of glycine-NaOH 50 mM buffer at pH = 8.50 containing 5 μM of ThT was added to each Eppendorf and then they were vortexed. Finally, 200 μL of solution from each Eppendorf was placed in the wells of a microplate and fluorescence measurements were monitored using a Spectramax Gemini EM (Molecular Devices) fluorimeter with an excitation wavelength of 446 nm and an emission wavelength of 485 nm. Blank signals were subtracted from the corresponding samples. The fluorescence intensity of the Aβ42 + RIV–BIM solution was compared to that of the Aβ42 solution to obtain the inhibition of Aβ42 self-aggregation for each compound. The fluorescence intensity of the Aβ42 + Cu(II) + RIV–BIM solution was compared to that of the Aβ42 + Cu(II) solution to obtain the inhibition of the Cu(II)-induced Aβ42 aggregation for each hybrid.
The anti-amyloidogenic capacity of the compounds was assessed in vitro using the thioflavin T (ThT) method. To record fluorescence emission, excitation (446 nm) and emission (485 nm) wavelengths were used. When ThT binds to amyloid fibrils, an increase in absorbance and emission of this dye occurs with concomitant red shifts of the respective spectra. The percent of inhibition of Aβ42 aggregation is shown in Table 1, and the assays were performed in the presence of 20 μM of inhibitor. These concentration conditions were used to overcome solubility problems of some compounds in the aqueous phosphate buffer working medium. […]. […]

[1] = Radical scavenging activity (DPPH method); details: read-out: Antioxid. EC50, 30 min, absorbance 517 nm
Method: To determine the radical scavenging activity (antioxidant activity) of the novel RIV–BIM hybrids, the DPPH method was performed as previously described in the literature [49]. Working solutions of 20 mg of the ligands were prepared daily in 10 mL of MeOH (with a 10% of DMSO). A working solution of 2 mg DPPH in 100 mL MeOH was prepared daily, and its absorbance was checked to be between 0.75 and 1.00 (a.u.). […] Each one of the calibrate points was kept for 30 min under darkness to allow the ligands to exert their antioxidant effects. After 30 min, an auto-zero was performed with MeOH in both sample and reference cells, using a UV–Vis spectrophotometer. […] The antioxidant activity (%AA) for each point was calculated using the following equation: %AA=ADPPH−Aligand/ADPPH×100
The radical scavenging activity of the RIV–BIM compounds was determined by a spectrophotometric method involving the 2,2-diphenyl-1-picrylhydrazyl (DPPH) free radical [35, 64].

T1 sequence (P05067 672-713 limits assumed): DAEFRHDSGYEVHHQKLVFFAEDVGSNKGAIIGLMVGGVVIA

SMILES | inhibition at 20 µM (Aβ42 self-aggregation) [%] | Aβ42 Self-Aggreg. Inhib (Aβ42 self-aggregation) | EC50 [1] [mM]
CCN(C)C(=O)Oc1cccc(NC(=O)c2cccc3[nH]c(-c4ccccc4O)nc23)c1 [Compound 5a, 3-(2-(2-Hydroxyphenyl)-1H-benzo[d]imidazole-4-carboxamido)phenyl Ethylmethylcarbamate] | 44.5 |  | 
CCN(C)C(=O)Oc1cccc(NC(=O)c2ccc3nc(-c4ccccc4O)[nH]c3c2)c1 [Compound 4a, 3-(2-(2-Hydroxyphenyl)-1H-benzo[d]imidazole-6-carboxamido)phenyl Ethylmethylcarbamate] | 39 |  | 
CCN(C)C(=O)Oc1ccc(CCCNC(=O)c2cccc3[nH]c(-c4ccccc4O)nc23)cc1 [Compound 5d, 4-(3-(2-(2-Hydroxyphenyl)-1H-benzo[d]imidazole-4-carboxamido) Propyl) Phenyl Ethyl(methyl)carbamate] | 42.1 |  | 
CCN(C)C(=O)Oc1cccc(CCNC(=O)c2ccc3nc(-c4ccccc4O)[nH]c3c2)c1 [Compound 4c, 3-(2-(2-(2-Hydroxyphenyl)-1H-benzo[d]imidazole-6-carboxamido)ethyl) Phenylethylmethylcarbamate] | 21.2 | very weakly effective | 10
CCN(C)C(=O)Oc1cccc(CNC(=O)c2ccc3nc(-c4ccccc4O)[nH]c3c2)c1 [Compound 4b, 3-((2-(2-Hydroxyphenyl)-1H-benzo[d]imidazole-6-carboxamido)methyl) Phenyl Ethylmethylcarbamate] | 39.6 |  | 0.9 ± 0.1
CCN(C)C(=O)Oc1ccc(CCCNC(=O)c2ccc3nc(-c4ccccc4O)[nH]c3c2)cc1 [Compound 4d, 4-(3-(2-(2-Hydroxyphenyl)-1H-benzo[d]imidazole-6-carboxamido)propyl) Phenyl Ethylmethylcarbamate] | 20.1 | very weakly effective | 
CCN(C)C(=O)Oc1cccc(CNC(=O)c2cccc3[nH]c(-c4ccccc4O)nc23)c1 [Compound 5b, 3-((2-(2-Hydroxyphenyl)-1H-benzo[d]imidazole-4-carboxamido)methyl) Phenyl Ethylmethylcarbamate] | 58.7 |  | 
